What was measured:
SARS-CoV-2 S1 [1] = tested on: SARS-CoV-2 S1
SARS-CoV-2 S1 [2] = tested on: SARS-CoV-2 S1; remark: listed apart in the source
proteinaseK = target: T1, proteinaseK (Parengyodontium album, UniProt P06873); assay: Peptide remaining degree after ProtK treatment (Coomassie staining); assay type: in vitro ADME; settings: 5 ug/ml proteinaseK, 37° C., 10, 30 and 60 minutes, FIG. 7
T1 construct: purchased Bioshop
T1 sequence (P06873 106-384, species assumed): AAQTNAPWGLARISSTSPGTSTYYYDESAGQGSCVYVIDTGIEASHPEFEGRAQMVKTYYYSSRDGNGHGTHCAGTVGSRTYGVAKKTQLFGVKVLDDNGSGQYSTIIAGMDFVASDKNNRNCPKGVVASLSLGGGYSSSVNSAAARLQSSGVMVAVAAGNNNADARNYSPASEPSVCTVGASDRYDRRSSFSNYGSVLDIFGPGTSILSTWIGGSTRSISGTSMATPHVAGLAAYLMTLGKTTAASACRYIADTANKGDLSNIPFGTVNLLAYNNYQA
Experimental: 200 μL of 50 μM stock solution was prepared with a base buffer (10 mM Tris-base, 10 mM NaCl, pH 7.4) and supplemented with 5 μM CaCl2. For untreated TO samples, 30 μL were obtained from each sample. Thereafter, 5 ug/ml of proteinaseK (Bioshop) was added to a final concentration of the remaining stock. […] Protease inactivated samples were frozen at −20° C. before further use. The frozen sample was supplemented with 8 μL of sample loading buffer (4×NuPAGE; ThermoFisher Scientific), boiled for 10 minutes (50° C.), and centrifuged at 13,500 RPM for 10 minutes before mounting a gel [12% NuPAGE Bis-Tris (ThermoFisher Scientific)] with 1×Mes running buffer. The gel was treated at 200 V for 35 minutes and stained with Coomassie Brilliant Blue dye G-250 (Thermo Fisher Scientific). ImageJ software having a background subtractive function was used as a density meter. All samples were normalized to untreated samples (TO).

With `CC[C@H](C)[C@H](N)C(=O)N[C@@H](CCC(=O)O)C(=O)N[C@@H](CCC(=O)O)C(=O)N[C@@H](CCC(N)=O)C(=O)N[C@@H](C)C(=O)N[C@@H](CCCCN)C(=O)N[C@H](C(=O)N[C@@H](Cc1ccccc1)C(=O)N[C@@H](CC(C)C)C(=O)N[C@@H](CC(=O)O)C(=O)N[C@@H](CCCCN)C(=O)N[C@@H](Cc1ccccc1)C(=O)N[C@@H](CC(N)=O)C(=O)N[C@@H](Cc1c[nH]cn1)C(=O)N[C@@H](CCC(=O)O)C(=O)N[C@@H](C)C(=O)N[C@@H](CCC(=O)O)C(=O)N[C@@H](CC(=O)O)C(=O)N[C@@H](CC(C)C)C(=O)N[C@@H](Cc1ccccc1)C(=O)N[C@@H](Cc1ccc(O)cc1)C(=O)N[C@@H](CCC(N)=O)C(=O)N[C@@H](CO)C(=O)N[C@@H](CO)C(=O)N[C@@H](CC(C)C)C(=O)N[C@@H](C)C(=O)N[C@@H](CO)C(=O)NCC(=O)N1CCC[C@H]1C(=O)NCC(=O)N[C@H]1CSSC[C@@H](C(=O)N[C@@H](CCCNC(=N)N)C(=O)N[C@H](C(=O)N[C@@H](CC(C)C)C(=O)O)[C@@H](C)CC)NC(=O)[C@H](CC(=O)O)NC(=O)CNC(=O)[C@H](CCCCN)NC(=O)CNC(=O)[C@H](CC(C)C)NC1=O)[C@@H](C)O` [CSNP1] the “kd” value (SARS-CoV-2 S1 [1]) was 0.0001878 s⁻¹, the “ka” value (SARS-CoV-2 S1 [2]) was 603.4 M⁻¹ s⁻¹ and the “peptide remaining degree after proteinase K treatment” value (proteinaseK) was “barely remained”.

Source: US20240059741A1, “COMPOSITION FOR PREVENTION OR TREATMENT OF SARS-COV-2 INFECTION” (priority 2020, published 2024)
